The text below walks through data of patent US7465743B2, “Pyrazolo[3,4-b]pyridine compounds, and their use as PDE4 inhibitors” (Glaxo Group Limited, priority 2004, dated 2008).

Structures are written as SMILES. Some results are limits rather than exact numbers.

In one data set the target is PDE5 (human recombinant) (Homo sapiens, UniProt O76074). Put plainly: Inhibition of PDE5 activity (radioactive SPA assay). Format: biochemical. The note with it: specific Examples; one reading or average of ca. 2-6 readings; read-out: PDE5 pIC50 (± about 0.5) (converted). The text has this:
Human recombinant PDE5 is disclosed in K. Loughney et al., “Isolation and characterisation of cDNAs encoding PDE5A, a human cGMP-binding, cGMP-specific 3′,5′-cyclic nucleotide phosphodiesterase”, Gene, 1998, 216, 139-147.
(§1) Inhibition of PDE 3, PDE 4B, PDE 4D, PDE 5 or PDE 6 Activity: Radioactive Scintillation Proximity Assay (SPA)
(§2) The ability of compounds to inhibit catalytic activity at PDE4B or 4D (human recombinant), PDE3 (from bovine aorta), PDE5 (human recombinant) or PDE6 (from bovine retina) is determined by Scintillation Proximity Assay (SPA) in 96-well format. Test compounds (as a solution in DMSO, preferably about 2 microliter (ul) volume of DMSO solution) are preincubated at ambient temperature (room temperature, e.g. 19-23° C.) in Wallac Isoplates (code 1450-514) with PDE enzyme in 50 mM Tris-HCl buffer pH 7.5, 8.3 mM MgCl2, 1.7 mM EGTA, 0.05% (w/v) bovine serum albumin for 10-30 minutes (usually 30 minutes). The enzyme concentration is adjusted so that no more than 20% hydrolysis of the substrate defined below occurs in control wells without compound, during the incubation. For the PDE3, PDE4B and PDE4D assays, [5′,8-^3H]Adenosine 3′,5′-cyclic phosphate (Amersham Pharmacia Biotech, code TRK.559; or Amersham Biosciences UK Ltd, Pollards Wood, Chalfont St Giles, Buckinghamshire HP8 4SP, UK) is added to give 0.05 uCi per well and ˜10 nM final concentration. For the PDE5 and PDE6 assays, [8-^3H]Guanosine 3′,5′-cyclic phosphate (Amersham Pharmacia Biotech, code TRK.392) is added to give 0.05 uCi per well and ˜36 nM final concentration. Plates containing assay mixture, preferably approx. 100 ul volume of assay mixture, are mixed on an orbital shaker for 5 minutes and incubated at ambient temperature for 1 hour. Phosphodiesterase SPA beads (Amersham Pharmacia Biotech, code RPNQ 0150) are added (˜1 mg per well) to terminate the assay. Plates are sealed and shaken and allowed to stand at ambient temperature for 35 minutes to 1 hour (preferably 35 minutes) to allow the beads to settle. Bound radioactive product is measured using a WALLAC TRILUX 1450 Microbeta scintillation counter. For inhibition curves, 10 concentrations (1.5 nM-30 uM) of each compound are assayed. Curves are analysed using ActivityBase and XLfit (ID Business Solutions Limited, 2 Ocean Court, Surrey Research Park, Guildford, Surrey GU2 7QB, United Kingdom) Results are expressed as pIC50 values.
Biological Data obtained for some of the Examples (PDE4B and/or PDE5 inhibitory activity, either as one reading or as an average of ca. 2-6 readings) are as follows, based on current measurements only. In each of the SPA and FP assays, absolute accuracy of measurement is not possible, and the readings given are accurate only up to about ±0.5 of a log unit, depending on the number of readings made and averaged: […]

Data set [1] addresses T1, PDE4B (human recombinant) (Homo sapiens, UniProt Q07343).
T1 construct: made in house
Nature of the data set: Inhibition of PDE4B activity (radioactive SPA assay or IMAP FP assay). It counts as biochemical. The note with it: specific Examples; for Selectivity (PDE4B/PDE5 EMR ratio, not log scale): ratio PDE4B vs PDE5, not log scale; for IC50: one reading or average of ca. 2-6 readings, read-out: PDE4B pIC50 (± about 0.5) (converted).
Source text: Human recombinant PDE4B, in particular the 2B splice variant thereof (HSPDE4B2B), is disclosed in WO 94/20079 and also M. M. McLaughlin et al., “A low Km, rolipram-sensitive, cAMP-specific phosphodiesterase from human brain: cloning and expression of cDNA, biochemical characterisation of recombinant protein, and tissue distribution of mRNA”, J. Biol. Chem., 1993, 268, 6470-6476. For example, in Example 1 of WO 94/20079, human recombinant PDE4B is described as being expressed in the PDE-deficient yeast Saccharomyces cerevisiae strain GL62, e.g. after induction by addition of 150 uM CuSO4, and 100,000×g supernatant fractions of yeast cell lysates are described for use in the harvesting of PDE4B enzyme.
as §1, §2
Inhibition of PDE4B or PDE4D Activity: Fluorescence Polarisation (FP) Assay
The ability of compounds to inhibit catalytic activity at PDE4B (human recombinant) or PDE4D (human recombinant) is determined by IMAP Fluorescence Polarisation (FP) assay (IMAP Explorer kit, available from Molecular Devices Corporation, Sunnydale, Calif., USA; Molecular Devices code: R8062) in 384-well format. The IMAP FP assay is able to measure PDE activity in an homogenous, non-radioactive assay format. The FP assay uses the ability of immobilised trivalent metal cations, coated onto nanoparticles (tiny beads), to bind the phosphate group of Fl-AMP that is produced on the hydrolysis of fluorescein-labelled (Fl) cyclic adenosine mono-phosphate (Fl-cAMP) to the non-cyclic Fl-AMP form. […] Binding of Fl-AMP product to the beads (coated with the immobilised trivalent cations) slows the rotation of the bound Fl-AMP and leads to an increase in the fluorescence polarisation ratio of parallel to perpendicular light. Inhibition of the PDE reduces/inhibits this signal increase. […]

Data set [2] concerns conscious ferret (emesis). Put plainly: In Vivo Assay 4: emetic episodes in the conscious ferret after oral PDE4 inhibitor; therapeutic index. The note with it: p.o. Further details: species or system ferret (Mustela Pulorius Furo). On the procedure: (§3) In Vivo Assay 4. Evaluation of Therapeutic Index of Orally-administered PDE 4 inhibitors in the conscious ferret
(§4) PDE4 inhibitors are prepared for oral (p.o.) administration by dissolving in a fixed volume (1 ml) of acetone and then adding cremophor to 20% of the final volume. Acetone is evaporated by directing a flow of nitrogen gas onto the solution. Once the acetone is removed, the solution is made up to final volume with distilled water. LPS is dissolved in phosphate buffered saline.
Male ferrets (Mustela Pulorius Furo, weighing 1-2 kg) are transported and allowed to acclimatise for not less than 7 days. […]
(§5) PDE4 inhibitors are administered orally (p.o.), using a dose volume of 1 ml/kg. […] The animals are constantly observed and any emetic episodes (retching and vomiting) or behavioural changes are recorded. […]
(§6) Thirty minutes after oral dosing with compound or vehicle control, the ferrets are placed into sealed perspex containers and exposed to an aerosol of LPS (30 μg/ml) for 10 minutes. […] All emetic episodes and behavioural changes are recorded.
b) Emetic episodes—the number of vomits and retches are counted to determine the dose of PDE4 inhibitor that gives a 20% incidence of emesis (D20).
c) A therapeutic index (TI), using this assay, is then calculated for each PDE4 inhibitor using the following equation: […]

Data set [3] has as its system LPS-induced pulmonary neutrophilia. Put plainly: In Vivo Assay 4: LPS-induced pulmonary neutrophilia in the conscious ferret. Further details: species or system ferret (Mustela Pulorius Furo). The note with it: p.o. On the procedure: as §3, §4
Male ferrets (Mustela Pulorius Furo, weighing 1-2 kg) are transported and allowed to acclimatise for not less than 7 days. The diet comprises SDS diet C pelleted food given ad lib with Whiskers™ cat food given 3 times per week. […]
as §5, §6
Six hours after LPS exposure the animals are killed by overdose of sodium pentobarbitone administered intraperitoneally. […] From this, the total number of neutrophils in the BAL sample is determined. […]

T1 sequence (Q07343 1-564 isoform Q07343-2): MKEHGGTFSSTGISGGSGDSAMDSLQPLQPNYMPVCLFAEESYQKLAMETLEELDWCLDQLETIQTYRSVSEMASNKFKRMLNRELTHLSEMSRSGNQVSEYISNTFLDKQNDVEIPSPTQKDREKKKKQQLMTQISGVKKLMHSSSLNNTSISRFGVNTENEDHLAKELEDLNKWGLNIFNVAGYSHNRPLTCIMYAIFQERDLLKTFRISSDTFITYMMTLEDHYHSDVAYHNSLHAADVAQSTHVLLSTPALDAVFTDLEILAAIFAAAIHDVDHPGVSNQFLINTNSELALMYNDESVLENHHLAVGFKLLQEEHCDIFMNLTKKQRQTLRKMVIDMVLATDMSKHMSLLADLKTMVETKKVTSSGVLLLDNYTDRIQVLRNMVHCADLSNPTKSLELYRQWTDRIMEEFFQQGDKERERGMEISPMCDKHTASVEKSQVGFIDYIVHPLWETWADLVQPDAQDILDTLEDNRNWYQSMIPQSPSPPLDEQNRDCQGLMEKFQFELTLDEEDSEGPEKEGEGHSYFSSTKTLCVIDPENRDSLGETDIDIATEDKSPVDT

`CCCCNC(=O)c1cnc2c(cnn2CC)c1NCCCC` [4-butylamino-1-ethyl-pyrazolo[3,4-b]pyridine-5-(N-butyl)carboxamide, reference compound]: the IC50 on PDE5 (human recombinant) is 398 nM. In data set [1], the “Selectivity (PDE4B/PDE5 EMR ratio, not log scale)” value is 2 and the IC50 was 158 nM.
For `CCC(C)Nc1c(C(=O)Nc2ccccc2)cnc2c1cnn2C(C)C` (stereo not drawn) [Comparative Example 61, reference compound], in that order: 5010 nM, 21 and 200 nM.
In the same order, the values of `CCn1ncc2c(N[C@H](C)C(C)C)c(C(=O)NCc3ccccc3)cnc21` [Example 1, N-Benzyl-4-{[(1R)-1,2-dimethylpropyl]amino}-1-ethyl-1H-pyrazolo[3,4-b]pyridine-5-carboxamide] are 1000 nM, 66 and 15.8 nM.
In the same order, the values of `CCn1ncc2c(N[C@H](C)C(C)C)c(C(=O)Nc3ccc(F)cc3)cnc21` [Example 2, 4-{[(1R)-1,2-Dimethylpropyl]amino}-1-ethyl-N-(4-fluorophenyl)-1H-pyrazolo[3,4-b]pyridine-5-carboxamide] are 7940 nM, 135 and 63.1 nM.
As for `CCn1ncc2c(N[C@@H](C)C(C)C)c(C(=O)NCc3ccccc3)cnc21` [Example 38, N-Benzyl-4-{[(1S)-1,2-dimethylpropyl]amino}-1-ethyl-1H-pyrazolo[3,4-b]pyridine-5-carboxamide], the IC50 on PDE5 (human recombinant) is 10000 nM; in data set [1], 20 nM. The “Selectivity (PDE4B/PDE5 EMR ratio, not log scale)” value in data set [1] came out at 501.
On to `CCn1ncc2c(N[C@@H](C)C(C)C)c(C(=O)Nc3ccc(F)cc3)cnc21` [Example 39, 4-{[(1S)-1,2-Dimethylpropyl]amino}-1-ethyl-N-(4-fluorophenyl)-1H-pyrazolo[3,4-b]pyridine-5-carboxamide], for which the IC50 at PDE5 (human recombinant) was greater than 30200 nM; in data set [1] it was 63.1 nM. Besides, in data set [1], the “Selectivity (PDE4B/PDE5 EMR ratio, not log scale)” value is listed as “≧468”.
Turning to `CCC(CC)CNC(=O)c1cnc2c(cnn2CC)c1N[C@@H](C)C(C)C` [Example 51, 4-{[(1S)-1,2-Dimethylpropyl]amino}-1-ethyl-N-(2-ethylbutyl)-1H-pyrazolo[3,4-b]pyridine-5-carboxamide], the IC50 on PDE5 (human recombinant) is 3980 nM. Moreover, in data set [1], the “Selectivity (PDE4B/PDE5 EMR ratio, not log scale)” value came out at 437 and the IC50 was 7.94 nM.
In the same order, the values of `CCn1ncc2c(NC(C)(C)C)c(C(=O)NCc3ccccc3)cnc21` [Example 53, 4-(tert-Butylamino)-1-ethyl-N-benzyl-1H-pyrazolo[3,4-b]pyridine-5-carboxamide] are 3980 nM, 240 and 15.8 nM.
For `CCn1ncc2c(NC(C)(C)C)c(C(=O)Nc3ccc(F)cc3)cnc21` [Example 54, 4-(tert-Butylamino)-1-ethyl-N-(4-fluorophenyl)-1H-pyrazolo[3,4-b]pyridine-5-carboxamide], in that order: greater than 30200 nM, “≧309” and 100 nM.
Turning to `CC[C@@H](C)Nc1c(C(=O)NCc2ccccc2)cnc2c1cnn2CC` [compound 58, reference compound], the IC50 at PDE5 (human recombinant) is 631 to 3160 nM; in data set [1], 15.8 to 63.1 nM.
In the same order, the values of `CC[C@H](C)Nc1c(C(=O)NCc2ccccc2)cnc2c1cnn2CC` [compound 59, reference compound] are 631 to 3160 nM and 15.8 to 63.1 nM.
On to `O=C(Nc1c(Cl)cncc1Cl)c1ccc(OC(F)F)c(OCC2CC2)c1` [roflumilast], for which the “D20 for emesis (dose that gives a 20% incidence of emesis)” value in data set [2] is listed as “about 0.46 mg/kg”. In addition, in data set [3], the “D50 for ferret neutrophilia (dose which gives 50% inhibition of LPS-induced pulmonary neutrophilia)” value was “about 0.42 mg/kg”.
